{"source": "paper PMC11865978", "about": "“Cellular Activity of CQWW Nullomer-Derived Peptides” (ACS Omega, 2025)", "format_in_all_cases": "cell-based, human", "key": {"GCGR-E28": {"system": "GCGR-E28", "details": "72 h", "description": "(§1) Peptides were tested in an automated image-based high-content[42] cell painting[43],[44] assay that was originally developed to explore the mechanism of action of pharmacological and genetic perturbations within cells,[45] as well as a live cell imaging assay against six patient-derived glioblastoma cell lines (GCGR-E13, GCGR-E28, GCGR-E21, GCGR-E57, GCGR-E31, and GCGR-E34), covering classical, mesenchymal, and proneural subtypes, respectively (see Methods and Figure 1B–D), along with a healthy human fetal neuronal stem cell line (GCGR-NS9FB_B).\n(§2) Cell survival was quantified by nuclei counts from the Hoechst dye-stained nuclei and IC50 values calculated along with 95% confidence intervals (Figure 1B; see Table S2 for full details). […]\n(§3) High Content Phenotypic Screening assays\n(§4) Cell lines (glioma stem cell lines and normal foetal neural stem cells) were seeded on laminin (10 µg/mL) coated 384-well plates (Greiner Bio-One, 781091) at 1,000 cells/well and incubated overnight at 37 °C and 5% CO2. Aqueous peptide solutions (10 mM) were further diluted to 1 mM in water containing 10 % glycerol and 0.01 % TX-100. Cells were dosed using a D300 digital dispenser (Tecan) by 10-point dose response (30 µM – 1 µM) in triplicate and with aqueous glycerol/TX-100 as control. The cells were placed in an IncuCyte live cell imager (Essen BioScience) and imaged every three hours for 72 hours. Prior to fixation, the plates were removed from the IncuCyte and stained with Mitrotracker DeepRed (Invitrogen, M22426, 300 nM, 30 minutes). Cells were then fixed using 4 % formaldehyde and permeabilized with 0.1 % TX-100 in PBS. The cells were stained with ‘Cell Painting’ […]\n(§5) assay reagents1: Hoechst 33342 (10 mg/mL stock, Molecular Probes, 1:5000), SYTO14 […]\n(§6) BSA/PBS. The plates were imaged using an ImageXpress high content microscope (Molecular Devices). Cells were imaged with a 20× objective, covering 6 fields-of-view in each well. The data was then analyzed using a custom CellProfiler software pipeline using the University of Edinburgh high performance computing cluster. Dose response plots were calculated using HC StratomineR (corelifeanalytics.com). Nuclei count data was analyzed separately to generate cell survival metrics (normalized to aqueous glycerol/TX -100 control). […]"}, "GCGR-E31": {"system": "GCGR-E31", "details": "72 h", "description": "as §1, §2, §3, §4, §5, §6"}, "GCGR-E57": {"system": "GCGR-E57", "details": "72 h", "description": "as §1, §2, §3, §4, §5, §6"}, "GCGR-NS9FB_B": {"system": "GCGR-NS9FB_B", "details": "72 h", "description": "as §1, §2, §3, §4, §5, §6"}, "GCGR-E13": {"system": "GCGR-E13", "experiment": "Multiparametric cell painting phenotypic profile (PCA)", "details": "1-16 μM, compared with control polyarginine peptide 15 and DMSO", "description": "Figure 1 (A) 3D model of the CQWW peptide with residue labels shown in red. (B) Dose-dependent effect of peptide 2 (RRRRRCQWW) on cell survival across a range of cell lines, with fitted IC50 values shown below. (C) Representative live cell brightfield images of peptide 2 (RRRRRCQWW, 6 μM) against the glioblastoma stem cell line (GCGR-E28) versus normal neural stem cells (GCGR-NS9FB_B) after 3 h of incubation. (D) 3D principal component analysis (PCA 1, 2, and 3) from multiparametric cell painting image analysis of the GCGR-E13 cell line. […]\nThe phenotypic effect of the peptides was visualized by live cell imaging (Figure 1C, IncuCyte live cell imager) and also quantified via image analysis of cells labeled with the cell painting reagents (see Supporting Information) followed by image analysis using Cell Profiler (cellprofiler.org). […]\nBSA/PBS. […] The data was then analyzed using a custom CellProfiler software pipeline using the University of Edinburgh high performance computing cluster. Dose response plots were calculated using HC StratomineR (corelifeanalytics.com). Nuclei count data was analyzed separately to generate cell survival metrics (normalized to aqueous glycerol/TX -100 control).\nDose response curves were fitted and IC50 values calculated using Prism GraphPad (graphpad.com). […]"}}, "data": [{"substance": "H-RRRRRCQWW-NH2 [Peptide 2]", "values": [{"measurement": "IC50", "setting": "GCGR-E28", "result": 5.4, "unit": "µM"}, {"measurement": "IC50", "setting": "GCGR-E31", "result": 5.1, "unit": "µM"}, {"measurement": "IC50", "setting": "GCGR-E57", "result": 4.3, "unit": "µM"}, {"measurement": "IC50", "setting": "GCGR-NS9FB_B", "result": 7.9, "unit": "µM"}, {"measurement": "phenotypic profile in 3D principal component plot of cell painting features", "setting": "GCGR-E13", "result": "strong, dose-dependent phenotype"}]}]}
